In general, IC50 refers to the point on the concentration scale where inhibition reaches its midpoint.

The record followed here is patent US20260317320A1, “C5AR1 ANTAGONISTS AND USES THEREOF” (Vanqua Bio, Inc., priority 2022, published 2026).

Where two headings read alike, the source gives them in different places.

Assay [1] has as its target T1, complement C5a receptor 1 (C5aR1) (Homo sapiens, UniProt P21730).
T1 construct: β-galactosidase fragment (PathHunter enzyme complementation); host or cells: CHO-K1 (PathHunter CHO-K1 C5aR1 β-arrestin cell line)
T1 sequence (P21730 1-350): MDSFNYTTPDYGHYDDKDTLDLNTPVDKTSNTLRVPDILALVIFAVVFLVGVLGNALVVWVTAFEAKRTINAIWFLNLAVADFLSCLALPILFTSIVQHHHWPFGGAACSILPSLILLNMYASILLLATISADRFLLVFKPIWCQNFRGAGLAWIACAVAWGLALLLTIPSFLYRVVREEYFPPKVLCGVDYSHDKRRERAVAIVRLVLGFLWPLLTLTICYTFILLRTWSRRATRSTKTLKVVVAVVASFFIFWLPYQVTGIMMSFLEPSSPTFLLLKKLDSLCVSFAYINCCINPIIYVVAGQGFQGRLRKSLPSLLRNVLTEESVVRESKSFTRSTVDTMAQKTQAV
Nature of the assay: β-arrestin recruitment via C5aR1 activation in live CHO-K1 cells (PathHunter), antagonist mode. Format: cell-based. The procedure:
(§1) Exemplary compounds were evaluated for classical GPCR β-arrestin recruitment via complement C5a receptor 1 (C5aR1) activation in live CHO-K1 cells. This cell line expresses two fragments of the […] protein coupled to β-arrestin and C5aR1. Complementation of the two fragments allows for the assessment of both C5aR1 agonism and antagonism. Recombinant hC5a (EC90) was used as the competing natural agonist against disclosed compounds (more information on the expanded protocol and cell line can be found on the manufacturer's website: PathHunter® CHO-K1 C5aR1 β-arrestin cell line, DiscoverX, Catalog No. 93-0557C2). […] IC50 ranges: A: IC50≤500 nM; B: 500 nM<IC50≤5 uM; C: 5 uM<IC50≤100 uM; D: IC50>100 uM.
On the technique in general: Arrestin recruitment assays detect the binding of arrestin to an activated receptor.

Assay [2] deals with T1, complement C5a receptor 1 (C5aR1). Nature of the assay: β-arrestin recruitment via C5aR1 activation in live CHO-K1 cells (PathHunter), agonist mode. Format: cell-based. On the procedure:
as §1

Where [3] appears, read: antagonist mode, recombinant hC5a (EC90) as competing natural agonist, live CHO-K1 cells, read-out: [Antagonist] B-arrestin2 recruitment: Average IC50.

Take `Cc1cnc2cc([C@H]3CC[C@H](c4cnsc4C)CC3)c(=O)n(Cc3nccnc3C(F)(F)F)c2n1` [compound 242, 3-Methyl-7-((1r,4r)-4-(5-methylisothiazol-4-yl)cyclohexyl)-5-((3-(trifluoromethyl)pyrazin-2-yl)methyl)pyrido[2,3-b]pyrazin-6(5H)-one]: the IC50 in assay [1] (setting [3]) is below 500 nM. In addition, in assay [2], the “[Agonist] B-arrestin2 recruitment: Average EC50 (nM)” value (“[Agonist] B-arrestin2 recruitment” below) is on record as “Non-Active”.
On to `Cc1cnc2cc(C3CCN(c4cc(F)cnc4C)CC3)c(=O)n(Cc3ncccc3C(F)(F)F)c2n1` [compound 56, 7-(1-(5-fluoro-2-methylpyridin-3-yl)piperidin-4-yl)-3-methyl-5-((3-(trifluoromethyl)-pyridin-2-yl)methyl)pyrido[2,3-b]pyrazin-6(5H)-one], for which the half-inhibitory concentration (IC50) in assay [1] (setting [3]) fell in the range of 5000 to 100000 nM. Also, the “[Agonist] B-arrestin2 recruitment” value in assay [2] is “Non-Active”.
As to `Cc1cnc2cc(C3CCN(c4ncsc4C)CC3)c(=O)n(Cc3ncccc3C(F)(F)F)c2n1` [compound 131], the 50% inhibitory concentration (IC50) in assay [1] (setting [3]) is below 500 nM. The “[Agonist] B-arrestin2 recruitment” value in assay [2] is “Non-Active”.
As to `Cc1cnc2cc([C@H]3CC[C@H](c4cnsc4C)CC3)c(=O)n(Cc3ncccc3C(F)(F)F)c2n1` [compound 249, 3-Methyl-7-((1r,4r)-4-(5-methylisothiazol-4-yl)cyclohexyl)-5-((3-(trifluoromethyl)pyridin-2-yl)methyl)pyrido[2,3-b]pyrazin-6(5H)-one], the IC50 in assay [1] (setting [3]) is below 500 nM. In addition, the “[Agonist] B-arrestin2 recruitment” value in assay [2] (at 10 μM) is “Non-Active at 10 μM”.
As to `Cc1cnc2cc([C@H]3CC[C@H](c4c(C)cccc4F)C3)c(=O)n(Cc3ncccc3OC(F)F)c2n1` [175C, 5-((3-(Difluoromethoxy)pyridin-2-yl)methyl)-7-((1S,3S)-3-(2-fluoro-6-methylphenyl)cyclopentyl)-3-methylpyrido[2,3-b]pyrazin-6(5H)-one], in assay [1] (setting [3]), the IC50 was below 500 nM. Moreover, the “[Agonist] B-arrestin2 recruitment” value in assay [2] is reported as “Non-Active”.
As to `Cc1ccc2cc([C@H]3CC[C@H](c4c(C)ccnc4F)CC3)c(=O)n(Cc3ncccc3CC(F)(F)F)c2n1` [compound 259, 7-Methyl-3-[(1r,4r)-4-(2-fluoro-4-methyl-3-pyridyl)cyclohexyl]-1-{[3-(2,2,2-trifluoroethyl)-2-pyridyl]methyl}-1,8-diaza-2(1H)-naphthalenone], in assay [1] (setting [3]), the IC50 is below 500 nM. Besides, in assay [2], the “[Agonist] B-arrestin2 recruitment” value is “Non-Active”.
Regarding `Cc1cnc2cc([C@H]3CC[C@H](c4c(C)ccnc4F)CC3)c(=O)n(Cc3ncccc3C(F)(F)F)c2n1` [147B, 7-((1r,4r)-4-(2-Fluoro-4-methylpyridin-3-yl)cyclohexyl)-3-methyl-5-((3-(trifluoromethyl)pyridin-2-yl)methyl)pyrido[2,3-b]pyrazin-6(5H)-one], the concentration for half-maximal inhibition (IC50) in assay [1] (setting [3]) was below 500 nM. The “[Agonist] B-arrestin2 recruitment” value in assay [2] was “Non-Active”.
Take `Cc1cnc2cc(N3CCN(c4c(C)cccc4F)CC3)c(=O)n(Cc3ncccc3C(F)F)c2n1` [compound 140, 5-((3-(Difluoromethyl)pyridin-2-yl)methyl)-7-(4-(2-fluoro-6-methylphenyl)piperazin-1-yl)-3-methylpyrido[2,3-b]pyrazin-6(5H)-one]: in assay [1] (setting [3]), the 50% inhibitory concentration (IC50) was below 500 nM. Besides, the “[Agonist] B-arrestin2 recruitment” value in assay [2] (at 10 μM) is “Non-Active at 10 μM”.
As for `Cc1cccc(F)c1N1CCC(c2nc3nccnc3n(Cc3ccccc3C(F)(F)F)c2=O)CC1` [compound 39, 3-(1-(2-Fluoro-6-methylphenyl)piperidin-4-yl)-1-(2-(trifluoromethyl)benzyl)pyrazino[2,3-b]pyrazin-2(1H)-one], the IC50 in assay [1] was in the range of 500 to 5000 nM. The “[Agonist] B-arrestin2 recruitment” value in assay [2] was “Non-Active”.
In the case of `Cc1cccc(F)c1N1CCC(n2c(=O)c3nccnc3n(Cc3nccnc3C(F)(F)F)c2=O)CC1` [compound 37, 3-(1-(2-Fluoro-6-methylphenyl)piperidin-4-yl)-1-((3-(trifluoromethyl)pyrazin-2-yl)methyl)pteridine-2,4(1H,3H)-dione], in assay [1] (setting [3]), the IC50 fell in the range of 5000 to 100000 nM. In assay [2], the “[Agonist] B-arrestin2 recruitment” value was “Non-Active”.
With `Cc1ncc2cc(C3CCN(c4c(C)cccc4F)CC3)c(=O)n(Cc3nccnc3C(F)(F)F)c2n1` [compound 47, 6-(1-(2-Fluoro-6-methylphenyl)piperidin-4-yl)-2-methyl-8-((3-(trifluoromethyl)pyrazin-2-yl)methyl)pyrido[2,3-d]pyrimidin-7(8H)-one], the IC50 in assay [1] (setting [3]) was in the range of 500 to 5000 nM. Further, the “[Agonist] B-arrestin2 recruitment” value in assay [2] is “Non-Active”.
Regarding `COc1nccc(C)c1[C@H]1CC[C@H](c2cc3ccc(C)nc3n(Cc3ncccc3C(F)(F)F)c2=O)CC1` [compound 234, 3-((1r,4r)-4-(2-Methoxy-4-methylpyridin-3-yl)cyclohexyl)-7-methyl-1-((3-(trifluoromethyl)pyridin-2-yl)methyl)-1,8-naphthyridin-2(1H)-one], in assay [1] (setting [3]), the IC50 was below 500 nM. The “[Agonist] B-arrestin2 recruitment” value in assay [2] (at 10 μM) is on record as “Non-Active at 10 μM”.
For `Cc1cnc2cc([C@H]3CC[C@H](c4c(C)ccnc4F)CC3)c(=O)n(Cc3nccnc3C)c2n1` [135B, 7-((1r,4r)-4-(2-Fluoro-4-methylpyridin-3-yl)cyclohexyl)-3-methyl-5-((3-methylpyrazin-2-yl)methyl)pyrido[2,3-b]pyrazin-6(5H)-one], the IC50 in assay [1] (setting [3]) fell in the range of 5000 to 100000 nM. The “[Agonist] B-arrestin2 recruitment” value in assay [2] (at 10 μM) is given as “Non-Active at 10 μM”.
On to `Cc1cnc2cc(N3CCN(c4cc(F)cnc4C)CC3)c(=O)n(Cc3nccnc3C(F)(F)F)c2n1` [compound 59, 7-(4-(5-Fluoro-2-methylpyridin-3-yl)piperazin-1-yl)-3-methyl-5-((3-(trifluoromethyl)pyrazin-2-yl)methyl)pyrido[2,3-b]pyrazin-6(5H)-one], for which, in assay [1] (setting [3]), the IC50 was above 100000 nM. For the same compound, the “[Agonist] B-arrestin2 recruitment” value in assay [2] is listed as “Non-Active”.
On to `Cc1cccc(F)c1N1CCC(c2nc3nccnc3n(Cc3ccccc3OC(F)F)c2=O)CC1` [compound 46, 1-(2-(difluoromethoxy)benzyl)-3-(1-(2-fluoro-6-methylphenyl)piperidin-4-yl)pyrazino[2,3-b]pyrazin-2(1H)-one], for which, in assay [1] (setting [3]), the IC50 was 500 to 5000 nM. In assay [2], the “[Agonist] B-arrestin2 recruitment” value is “Non-Active”.
Turning to `Cc1cnc2cc(C3CCN(c4nccnc4C)CC3)c(=O)n(Cc3ncccc3OC(F)(F)F)c2n1` [compound 153, 3-Methyl-7-(1-(3-methylpyrazin-2-yl)piperidin-4-yl)-5-((3-(trifluoromethoxy)pyridin-2-yl)methyl)pyrido[2,3-b]pyrazin-6(5H)-one], the IC50 in assay [1] (setting [3]) is 500 to 5000 nM. For the same compound, the “[Agonist] B-arrestin2 recruitment” value in assay [2] (at 10 μM) was “Non-Active at 10 μM”.
As to `Cc1cnc2cc([C@H]3CC[C@H](c4c(C)cccc4F)C3)c(=O)n(Cc3ncccc3C(F)(F)F)c2n1` [171C, 7-((1S,3S)-3-(2-Fluoro-6-methylphenyl)cyclopentyl)-3-methyl-5-((3-(trifluoromethyl)pyridin-2-yl)methyl)pyrido[2,3-b]pyrazin-6(5H)-one], the IC50 in assay [1] (setting [3]) is below 500 nM. In addition, the “[Agonist] B-arrestin2 recruitment” value in assay [2] is “Non-Active”.
On the same counts, the results for `Cc1ccnc(F)c1N1CCC(c2cc3nccnc3n(Cc3ccccc3C(F)(F)F)c2=O)CC1` [compound 31, 7-(1-(2-Fluoro-4-methylpyridin-3-yl)piperidin-4-yl)-5-(2-(trifluoromethyl)benzyl)pyrido[2,3-b]pyrazin-6(5H)-one] are below 500 nM and “Non-Active”.
On to `Cc1cnc2cc(C3CCN(c4c(C)ccnc4F)CC3)c(=O)n(Cc3ncccc3C(F)(F)F)c2n1` [compound 133, 7-(1-(2-Fluoro-4-methylpyridin-3-yl)piperidin-4-yl)-3-methyl-5-((3-(trifluoromethyl)pyridin-2-yl)methyl)pyrido[2,3-b]pyrazin-6(5H)-one], for which, in assay [1] (setting [3]), the IC50 is below 500 nM. Moreover, in assay [2], the “[Agonist] B-arrestin2 recruitment” value is “Non-Active”.
On to `Cc1cnc2cc([C@H]3CC[C@H](c4c(C)cccc4F)CC3)c(=O)n(Cc3nccnc3C3CC3)c2n1` [compound 221, 5-((3-Cyclopropylpyrazin-2-yl)methyl)-7-((1r,4r)-4-(2-fluoro-6-methylphenyl)cyclohexyl)-3-methylpyrido[2,3-b]pyrazin-6(5H)-one], for which, in assay [1] (setting [3]), the half-inhibitory concentration (IC50) is below 500 nM. Moreover, the “[Agonist] B-arrestin2 recruitment” value in assay [2] (at 10 μM) is “Non-Active at 10 μM”.
Take `Cc1c(C2CCN(c3cnccc3C(F)(F)F)CC2)c(=O)n(Cc2ncccc2F)c2nccnc12` [compound 86, 5-((3-Fluoropyridin-2-yl)methyl)-8-methyl-7-(1-(4-(trifluoromethyl)pyridin-3-yl)piperidin-4-yl)pyrido[2,3-b]pyrazin-6(5H)-one]: the half-inhibitory concentration (IC50) in assay [1] (setting [3]) fell in the range of 500 to 5000 nM. Also, the “[Agonist] B-arrestin2 recruitment” value in assay [2] is “Non-Active”.
